Source: US12642270B2, “Substituted thiophene carboxamides, thiophene carboxylic acids and derivatives thereof” (Bayer Aktiengesellschaft, priority 2019, dated 2026)

Experiment: Log P by HPLC on reversed phase columns (EEC directive 79/831 Annex V.A8)
Assay type: physicochemical
Details: method [a]; compounds of formula (I), Table 1.1
Description: In the above tables, measurement of Log P values was performed according to EEC directive 79/831 Annex V.A8 by HPLC (High Performance Liquid Chromatography) on reversed phase columns with the following methods: • ^[a] Log P value is determined by measurement of LC-UV, in an acidic range, with 0.1% formic acid in water and acetonitrile as eluent (linear gradient from 10% acetonitrile to 95% acetonitrile). • ^[b] Log P value is determined by measurement of LC-UV, in a neutral range, with 0.001 molar ammonium acetate solution in water and acetonitrile as eluent (linear gradient from 10% acetonitrile to 95% acetonitrile). • ^[c] Log P value is determined by measurement of LC-UV, in an acidic range, with 0.1% phosphoric acid and acetonitrile as eluent (linear gradient from 10% acetonitrile to 95% acetonitrile). If more than one Log P value is available within the same method, all the values are given and separated by “+”. Calibration was done with straight-chain alkan2-ones (with 3 to 16 carbon atoms) with known Log P values (measurement of Log P values using retention times with linear interpolation between successive alkanones). Lambda-max-values were determined using UV-spectra from 200 nm to 400 nm and the peak values of the chromatographic signals.

Compound	LogP
CCOC(=O)C1(NC(=O)c2sc(Br)c(I)c2C)CCC1 [1.0090]	3.77^[a]
CCOC(=O)C(NC(=O)c1sc(Br)c(I)c1C)C(C)C (centres unmarked) [1.0091]	4.37^[a]
COC(=O)C(CC(F)F)NC(=O)c1sc(Br)c(I)c1C (centres unmarked) [1.0092]	3.39^[a]
CCOC(=O)C(CC(C)C)NC(=O)c1sc(Br)c(I)c1C (centres unmarked) [1.0093]	4.66^[a]
CCOC(=O)C(CCSC)NC(=O)c1sc(Br)c(I)c1C (centres unmarked) [1.0094]	4.03^[a]
CCOC(=O)C(Cc1ccccc1)NC(=O)c1sc(Br)c(I)c1C (centres unmarked) [1.0095]	4.53^[a]
CCOC(=O)CNC(=O)c1sc(I)c(Br)c1C [1.0096]	3.02^[a]
CCOC(=O)CCNC(=O)c1sc(I)c(Br)c1C [1.0097]	3.17^[a]
CCOC(=O)C1(NC(=O)c2sc(I)c(Br)c2C)CC1 [1.0098]	3.19^[a]
CCOC(=O)C1(NC(=O)c2sc(I)c(Br)c2C)CCC1 [1.0099]	3.71^[a]
CCOC(=O)C(NC(=O)c1sc(I)c(Br)c1C)C(C)C (centres unmarked) [1.0100]	4.30^[a]
COC(=O)C(CC(F)F)NC(=O)c1sc(I)c(Br)c1C (centres unmarked) [1.0101]	3.33^[a]
CCOC(=O)C(CC(C)C)NC(=O)c1sc(I)c(Br)c1C (centres unmarked) [1.0102]	4.56^[a]
CCOC(=O)C(CCSC)NC(=O)c1sc(I)c(Br)c1C (centres unmarked) [1.0103]	3.96^[a]
CCOC(=O)C(Cc1ccccc1)NC(=O)c1sc(I)c(Br)c1C (centres unmarked) [1.0104]	4.46^[a]
Cc1c(C(=O)NCC#N)sc(Cl)c1Br [1.0105]	2.58^[a]
Cc1c(C(=O)NC2(C#N)CC2)sc(Cl)c1Br [1.0106]	2.78^[a]
Cc1c(C(=O)NC2(C#N)CCC2)sc(Cl)c1Br [1.0107]	4.53^[a]
Cc1c(C(=O)NC(C#N)C(C)C)sc(Cl)c1Br (centres unmarked) [1.0108]	3.63^[a]
Cc1c(C(=O)NC(C#N)c2ccccc2)sc(Cl)c1Br (centres unmarked) [1.0109]	3.85^[a]
Cc1c(C(=O)NC(C#N)Cc2ccccc2)sc(Cl)c1Br (centres unmarked) [1.0110]	3.99^[a]

Compound	LogP
Cc1c(C(=O)NCC#N)sc(Br)c1Cl [1.0111]	2.54^[a]
Cc1c(C(=O)NC2(C#N)CC2)sc(Br)c1Cl [1.0112]	2.75^[a]
Cc1c(C(=O)NC(C#N)c2ccccc2)sc(Br)c1Cl (centres unmarked) [1.0113]	3.81^[a]
Cc1c(C(=O)NC(C#N)Cc2ccccc2)sc(Br)c1Cl (centres unmarked) [1.0114]	3.92^[a]
N#CC1(NC(=O)c2sc(Br)c(Br)c2F)CC1 [1.0115]	2.64^[a]
N#CC1(NC(=O)c2sc(Br)c(Br)c2F)CCC1 [1.0116]	3.11^[a]
N#CC(NC(=O)c1sc(Br)c(Br)c1F)c1ccccc1 (centres unmarked) [1.0117]	3.65^[a]
N#CC(Cc1ccccc1)NC(=O)c1sc(Br)c(Br)c1F (centres unmarked) [1.0118]	3.81^[a]
COC(=O)C(NC(=O)c1sc(Cl)c(Br)c1C)C1CC1 (centres unmarked) [1.0119]	3.39^[a]
COC(=O)C(NC(=O)c1sc(Br)c(Cl)c1C)C1CC1 (centres unmarked) [1.0120]	3.35^[a]
COC(=O)C(NC(=O)c1sc(Br)c(Br)c1F)C1CC1 (centres unmarked) [1.0121]	3.43^[a]
CCOC(=O)C(C)NC(=O)c1sc(Cl)c(Br)c1C (centres unmarked) [1.0122]	3.37^[a]
COC(=O)C(Cc1c[nH]cn1)NC(=O)c1sc(Cl)c(Br)c1C (centres unmarked) [1.0124]	1.48^[a]
CCOC(=O)C(COC)NC(=O)c1sc(Cl)c(Br)c1C (centres unmarked) [1.0125]	3.44^[a]
CCOC(=O)C(Cc1ccc(O)cc1)NC(=O)c1sc(Cl)c(Br)c1C (centres unmarked) [1.0126]	3.33^[a]
COC(=O)[C@H](CCCNC(=N)N)NC(=O)c1sc(Cl)c(Br)c1C [1.0127]	1,66^[a]
CCOC(=O)C(Cc1c[nH]c2ccccc12)NC(=O)c1sc(Cl)c(Br)c1C (centres unmarked) [1.0128]	4.15^[a]
COC(=O)C(Cc1c[nH]cn1)NC(=O)c1sc(Br)c(Cl)c1C (centres unmarked) [1.0129]	1.47^[a]
CCOC(=O)C(Cc1ccc(O)cc1)NC(=O)c1sc(Br)c(Cl)c1C (centres unmarked) [1.0130]	3.29^[a]
COC(=O)[C@H](CCCNC(=N)N)NC(=O)c1sc(Br)c(Cl)c1C [1.0131]	1.71^[a]
